Earlier results as cited in patent US20250241904A1, “COMPOSITION AND METHOD FOR PREVENTION AND TREATMENT OF CUTANEOUS RADIATION INJURY” (Rythera Therapeutics, Inc., priority 2022, published 2025).

Key:
mice = conditions: topical
[1] = system: radiation proctopathy or proctitis; conditions: in vivo

Compound | treating radiation proctopathy or proctitis [1] | other results
NCCCNCCSP(=O)(O)O [amifostine] | – | dermato-cytoprotective effects (radiation dermatitis; retrospective analysis): significant dermato-cytoprotective effects
CN[C@H]1CC[C@@H](c2ccc(Cl)c(Cl)c2)c2ccccc21 [sertraline] | – | itch-evoked scratching (mice): significant itch-evoked scratching
Nc1ccc(O)c(C(=O)O)c1 [5-ASA, 5-aminosalicylic acid] | unsuccessful | –
O=C1O[C@H]([C@@H](O)CO)C(O)=C1O [Vitamin C] | – | results of irradiated breast tissue (radiation dermatitis; in vivo): without improvement
O=[N+]([O-])OCC(CO[N+](=O)[O-])O[N+](=O)[O-] [nitroglycerin] | ineffective | –
Sucralfate | ineffective | –
